The record followed here is US12570671B2 (BRISTOL-MYERS SQUIBB COMPANY, priority 2020, dated 2026).

Assay [1] addresses Helios (Homo sapiens, UniProt Q96SW2+Q9UKS7). Briefly: Helios Cellular Degradation Assay (Helios readout). Also on record: Jurkat cells were plated at 80,000 cells/well; endogenous in cells; host or cells: Jurkat. As to conditions: Jurkat cells, 72 h incubation, Helios-PE antibody staining, flow cytometry; read-out: Helios Jurkat IC50. In kind it is cell-based. The procedure: (§1) Jurkat cells were plated at 80,000 cells/well in 40 μL RPMI+10% FBS in a 384 well cell culture plate prior to using acoustic dispensing technology for adding compound of interest. Cell cultures were incubated for 72 h at 37° C. and 5% C02. In order to facilitate analysis, cell cultures were spun down at 200 rpm for 5 min and the supernatant was discarded. After shaking the plate to dislodge the cell pellet, cells were resuspended in 50 μL of Fixation Buffer (eBioScience FoxP3 buffer set 00-5523-00) for 60 min at room temperature. After centrifuging and discarding the supernatant, cells were permeabilized with 50 μL of Permeabilization buffer (eBioScience FoxP3 buffer set 00-5523-00) for 10 min at room temperature. Following permeabilization, cells were spun down and the supernatant was replaced with 20 μL fluorescently labelled antibodies against Helios, Ikaros and Aiolos or corresponding Isotype controls in 1× Permeabilization buffer (Ikaros-Alexa488 [Biolegend, Cat #368408, 1:50], Helios-PE [CST, Cat #29360, 1:50], Aiolos-Alexa647 [Biolegend, Cat #371106Biolegend, 1:25]) and staining reactions were incubated for 1 h at room temperature; protected from light. […] Stained cells were resuspended in 25 μL of flow cytometry staining buffer (PBS+0.2% BSA) and analyzed using an Intellicyt Ique Plus flow cytometer.
(In general: Flow cytometry measures light scatter and fluorescence of single cells or particles in a stream.)

Assay [2] deals with Ikaros (Homo sapiens, UniProt Q13422+Q96SW2). Briefly: Helios Cellular Degradation Assay (Ikaros readout). Type of assay: cell-based. Also on record: Jurkat cells were plated at 80,000 cells/well; endogenous in cells; host or cells: Jurkat. The note with it: Jurkat cells, 72 h incubation, Ikaros-Alexa488 antibody staining, flow cytometry; read-out: Ikaros Jurkat IC50. The procedure: as §1
Ikaros, sequence (Q13422 whole entry): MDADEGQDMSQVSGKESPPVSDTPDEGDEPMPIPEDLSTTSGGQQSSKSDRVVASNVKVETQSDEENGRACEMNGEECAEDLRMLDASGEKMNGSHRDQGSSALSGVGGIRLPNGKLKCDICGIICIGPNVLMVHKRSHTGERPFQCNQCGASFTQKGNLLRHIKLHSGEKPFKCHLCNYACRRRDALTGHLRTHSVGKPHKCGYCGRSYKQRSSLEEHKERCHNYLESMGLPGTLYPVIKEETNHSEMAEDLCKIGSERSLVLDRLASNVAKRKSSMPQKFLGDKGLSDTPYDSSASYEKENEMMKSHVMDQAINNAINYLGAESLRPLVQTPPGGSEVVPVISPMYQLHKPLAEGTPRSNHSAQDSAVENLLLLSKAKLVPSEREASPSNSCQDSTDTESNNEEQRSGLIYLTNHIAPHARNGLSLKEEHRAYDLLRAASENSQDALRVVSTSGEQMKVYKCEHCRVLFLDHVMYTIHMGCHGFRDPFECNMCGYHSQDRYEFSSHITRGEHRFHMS
Ikaros, sequence (Q96SW2 whole entry): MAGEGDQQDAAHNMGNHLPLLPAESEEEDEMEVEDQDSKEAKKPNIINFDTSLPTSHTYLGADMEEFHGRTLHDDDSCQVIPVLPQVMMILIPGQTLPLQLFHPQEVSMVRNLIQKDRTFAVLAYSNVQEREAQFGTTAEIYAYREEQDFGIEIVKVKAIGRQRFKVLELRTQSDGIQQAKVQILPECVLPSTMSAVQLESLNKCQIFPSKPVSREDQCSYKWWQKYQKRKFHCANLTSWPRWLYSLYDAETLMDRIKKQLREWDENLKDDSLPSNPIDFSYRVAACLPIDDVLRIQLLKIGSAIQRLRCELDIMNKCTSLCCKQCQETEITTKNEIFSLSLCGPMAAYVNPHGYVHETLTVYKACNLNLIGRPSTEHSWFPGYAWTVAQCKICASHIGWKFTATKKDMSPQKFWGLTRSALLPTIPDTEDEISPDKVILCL
Ikaros, sequence (Q16531 whole entry partner): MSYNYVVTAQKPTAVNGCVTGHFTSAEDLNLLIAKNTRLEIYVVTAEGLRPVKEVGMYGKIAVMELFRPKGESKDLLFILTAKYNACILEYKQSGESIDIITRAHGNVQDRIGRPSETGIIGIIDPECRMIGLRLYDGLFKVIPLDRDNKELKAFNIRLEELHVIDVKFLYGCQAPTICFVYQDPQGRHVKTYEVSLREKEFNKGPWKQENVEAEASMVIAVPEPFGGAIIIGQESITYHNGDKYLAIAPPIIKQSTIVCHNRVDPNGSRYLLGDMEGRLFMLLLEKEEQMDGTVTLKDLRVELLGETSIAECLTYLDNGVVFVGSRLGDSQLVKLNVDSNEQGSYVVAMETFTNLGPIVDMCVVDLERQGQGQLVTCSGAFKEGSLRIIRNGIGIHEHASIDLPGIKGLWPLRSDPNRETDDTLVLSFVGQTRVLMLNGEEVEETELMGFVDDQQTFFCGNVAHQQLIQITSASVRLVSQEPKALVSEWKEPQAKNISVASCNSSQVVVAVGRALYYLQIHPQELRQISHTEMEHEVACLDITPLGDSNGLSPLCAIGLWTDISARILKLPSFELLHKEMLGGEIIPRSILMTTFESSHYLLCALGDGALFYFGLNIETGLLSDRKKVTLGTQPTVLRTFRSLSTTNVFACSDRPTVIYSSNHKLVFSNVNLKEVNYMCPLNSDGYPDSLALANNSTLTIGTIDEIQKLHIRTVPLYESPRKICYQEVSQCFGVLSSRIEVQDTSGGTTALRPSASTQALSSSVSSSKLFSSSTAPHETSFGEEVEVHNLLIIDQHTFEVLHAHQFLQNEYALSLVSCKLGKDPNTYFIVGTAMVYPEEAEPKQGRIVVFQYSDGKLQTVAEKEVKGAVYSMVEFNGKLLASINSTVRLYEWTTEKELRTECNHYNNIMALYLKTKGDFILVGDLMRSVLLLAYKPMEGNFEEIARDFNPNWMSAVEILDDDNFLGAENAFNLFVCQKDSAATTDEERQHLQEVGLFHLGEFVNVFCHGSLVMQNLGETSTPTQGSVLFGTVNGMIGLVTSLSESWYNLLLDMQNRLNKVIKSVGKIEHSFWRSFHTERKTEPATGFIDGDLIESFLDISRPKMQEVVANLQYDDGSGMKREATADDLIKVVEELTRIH

Helios, sequence (Q9UKS7 whole entry): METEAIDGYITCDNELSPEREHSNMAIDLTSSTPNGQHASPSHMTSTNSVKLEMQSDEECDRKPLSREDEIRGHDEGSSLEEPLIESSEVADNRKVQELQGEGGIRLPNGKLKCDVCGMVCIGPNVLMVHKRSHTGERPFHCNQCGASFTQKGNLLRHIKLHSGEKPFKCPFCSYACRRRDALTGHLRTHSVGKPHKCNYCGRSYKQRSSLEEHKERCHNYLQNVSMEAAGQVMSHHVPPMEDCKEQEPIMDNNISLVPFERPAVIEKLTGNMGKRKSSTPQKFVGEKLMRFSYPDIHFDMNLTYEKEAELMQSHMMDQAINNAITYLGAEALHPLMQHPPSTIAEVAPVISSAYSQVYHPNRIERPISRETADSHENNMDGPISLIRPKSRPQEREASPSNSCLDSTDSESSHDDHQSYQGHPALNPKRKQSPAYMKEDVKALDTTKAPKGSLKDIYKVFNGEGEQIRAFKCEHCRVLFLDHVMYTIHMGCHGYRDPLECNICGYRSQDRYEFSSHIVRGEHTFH
Helios, sequence (Q96SW2 whole entry): as the sequence (Q96SW2 whole entry) above
Helios, sequence (Q16531 whole entry partner): as the sequence (Q16531 whole entry partner) above

For `O=C1CCC(N2Cc3cc(-c4cc(COCc5ccccc5)ccn4)ccc3C2=O)C(=O)N1` (centres unmarked) [Example 154], the figures for the DC50 in assay [1] and in assay [2] were 3.98 µM and not below 10 µM, respectively.
